Consider two compounds from patent US20150104520A1, “Nanoparticle Formulations in Biomarker Detection” (priority 2013, published 2015).

The subject of the series is patients with epithelial ovarian cancer. As to the kind of experiment: Phase 2 randomized two-arm trial, IG-001 plus carboplatin vs paclitaxel plus carboplatin, 1st line. The source says:
Phase II ovarian trial design: randomized, two-arm trial, primary advanced epithelial ovarian cancer consisting of 100 patients (50/each arm). […] The primary objective of the study was to determine the Composite Response by GCIG CA-125 Response and Response Evaluation Criteria in Solid Tumors (RECIST): based on non-inferiority study. […] The treatment regimen included 6 cycles of treatment with injection every three weeks and tumor screening after cycles 2, 4 and 6.

Paclitaxel + Carboplatin: where the note is “composite response by GCIG CA-125 and RECIST, IG-001 260 mg/m^2 or paclitaxel 175 mg/m^2, each + carboplatin 5 AUC, every 3 weeks, 6 cycles”, the “Response n (%)” value is 37 (77.08) n (%). For the same compound, where the note is “patients with SAE”, the “SAE Rate (%)” value is 15 (31.25) n (%). Also, the “UAE Rate (%)” value (patients with UAE) was 0 (0.00) n (%).

As for `CC(=O)O[C@H]1C(=O)[C@@]2(C)[C@H]([C@H](OC(=O)c3ccccc3)[C@]3(O)C[C@H](OC(=O)[C@H](O)[C@@H](NC(=O)c4ccccc4)c4ccccc4)C(C)=C1C3(C)C)[C@]1(OC(C)=O)CO[C@@H]1C[C@@H]2O` [paclitaxel], the response rate (each with carboplatin) was found to be 77.8%.
